From US8491946B2, “Elastase inhibitor” (Shiseido Company, Ltd., priority 2010, dated 2013)
“Also recorded” adds a separate entry of the source.

Molecular target: T1, Human leukocyte-derived elastase (Homo sapiens, UniProt P08246)
T1 construct: purchased Elastin Product Co., Inc. CK828; host or cells: human leukocytes (leukocyte-derived)
T1 sequence (P08246 30-247 limits assumed): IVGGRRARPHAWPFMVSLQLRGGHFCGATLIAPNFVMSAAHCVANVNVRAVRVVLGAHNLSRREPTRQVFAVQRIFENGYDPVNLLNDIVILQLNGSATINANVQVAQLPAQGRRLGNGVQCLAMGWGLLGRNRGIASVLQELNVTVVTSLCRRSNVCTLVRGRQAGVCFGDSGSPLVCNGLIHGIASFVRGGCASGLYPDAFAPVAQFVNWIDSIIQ
Assay: elastase inhibition assay with fluorogenic substrate
Assay type: biochemical
Settings: FIG. 1; drug alone or raspberry extract combined with hydroxyproline; 60 minutes at 37° C.
Experimental: A solution containing 0.1 M HEPES and 0.5 M NaCl (pH 7.5) was used as a reaction buffer. Oxysuccinyl-(Ala)2-Pro-Val-MCA (Peptide Institute Cat. No. 3153-v) was used for the elastase substrate and dissolved in DMSO to a concentration of 80 mM followed by diluting to 0.16 mM with the reaction buffer. Human leukocyte-derived elastase (Elastin Product Co., Inc. Cat No. CK828) was diluted to 5 μg/mL with the reaction buffer.
25 μL aliquots of the 0.16 mM elastase substrate were dispensed into the wells of a 96-well plate followed by the addition of 50 μL of each drug. Next, 25 μL of ice-cooled 5 μg/mL elastase were added and incubated for 60 minutes at 37° C. followed by measuring fluorescence at 460 nm at an exciting wavelength of 369 nm. Raspberry extract BG manufactured by Maruzen Pharmaceuticals was used for the raspberry extract, L-hydroxyproline manufactured by Kyowa Hakko was used for the hydroxyproline, and Biodyne EMPP™ manufactured by Arch Personal Care Products L.P. was used for the yeast extract. Raspberry extract BG is a 1,3-butyleneglycol (50% aqueous solution) extract of raspberry fruit.

Structure (SMILES): O=C(O)[C@@H]1C[C@@H](O)CN1 [hydroxyproline, L-hydroxyproline]
- elastase inhibitory effects: elastase inhibitory effects were not demonstrated; also recorded: does not demonstrate elastase inhibitory effects alone
